Patent US20100168421A1, “A NEW PEPTIDE DEFORMYLASE INHIBITOR COMPOUND AND MANUFACTURING PROCESS THEREOF” (priority 2007, published 2010)
In brackets after ≈: the same amount, converted by molar mass. Read-outs that look alike come from different tables or passages of the source.

What was measured:
[1] = test system: Streptococcus Pneumoniae Pen NS; assay: MIC microdilution, S. Pneumoniae Pen NS; type: cell-based; conditions: read-out: MIC Streptococcus Pneumoniae Pen NS
Experimental: (§1) Minimum inhibitory concentrations (MICs) were determined using the microdilution method in 96-well format plates. Each of the compounds of Examples was dissolved in dimethyl sulfoxide to a concentration of 2 mg/mL and stored at 4° C. until used. They were diluted in Mueller-Hinton Broth (MHB) and used for MIC determination. The range of concentrations tested was […] final concentration using a two-fold dilution system. Plates were incubated at 37° C. and MIC were recorded after 24 hours of incubation for bacteria.
(§2) Linezolid and vancomycin were used as standard antibiotics, respectively.

[2] = test system: Vancomycin-resistant Enterococcus faecalis; assay: MIC microdilution, VR E. faecalis; type: cell-based; conditions: read-out: MIC Vancomycin-resistant Enterococcus faecalis
Experimental: as §1, §2

[3] = Acute toxicity study in mice; conditions: mouse, in vivo, po, 4000 mg/kg; ICR mice, orally, observed for 14 days
Experimental: The acute toxicity of the compounds of Example 5, 17 and 22 were tested using several groups of ICR mice each of 6 mice.

[4] = test system: Streptococcus pyogenes; assay: MIC microdilution, S. pyogenes; type: cell-based; conditions: read-out: MIC Streptococcus pyogenes
Experimental: as §1, §2

[5] = test system: Streptococcus Pneumoniae Pen S; assay: MIC microdilution, S. Pneumoniae Pen S; type: cell-based; conditions: read-out: MIC Streptococcus Pneumoniae Pen S
Experimental: as §1, §2

[6] = test system: Vancomycin-resistant Enterococcus faecium; assay: MIC microdilution, VR E. faecium; type: cell-based; conditions: read-out: MIC Vancomycin-resistant Enterococcus faecium
Experimental: as §1, §2

[7] = target: PDF enzyme (Escherichia coli, UniProt P0A6K3); assay: PDF/FDH coupled enzyme assay, E. coli; type: biochemical; conditions: PDF/FDH coupled assay, substrate fMAS, absorption at 340 nm; read-out: IC50 Escherichia coli
Chain of PDF enzyme (Escherichia coli, UniProt P0A6K3) (P0A6K3 whole entry): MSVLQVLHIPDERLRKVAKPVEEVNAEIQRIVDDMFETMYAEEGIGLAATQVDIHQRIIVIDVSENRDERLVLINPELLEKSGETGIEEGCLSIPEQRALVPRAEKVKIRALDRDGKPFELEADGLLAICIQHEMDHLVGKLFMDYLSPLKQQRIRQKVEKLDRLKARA
Experimental: Activities of PDF enzyme for E. coli and S. aureus were determined using PDF/FDH coupled assay. In this coupled assay, the formate released by PDF from its substrate formyl-Methionine-Alanine-Serine (fMAS) is oxidized by coupling enzyme formate dehydrogenase (FDH), reducing one molecule of NAD^+ to NADH, which is measured absorption at 340 nm.

[8] = target: PDF enzyme (Streptococcus pyogenes serotype M1, UniProt P68771); assay: PDF/FDH coupled enzyme assay, Streptococcus pyogenes; type: biochemical; conditions: PDF/FDH coupled assay, substrate fMAS, absorption at 340 nm; read-out: IC50 Streptococcus pyogenes
Chain of PDF enzyme (Streptococcus pyogenes serotype M1, UniProt P68771) (P68771 whole entry): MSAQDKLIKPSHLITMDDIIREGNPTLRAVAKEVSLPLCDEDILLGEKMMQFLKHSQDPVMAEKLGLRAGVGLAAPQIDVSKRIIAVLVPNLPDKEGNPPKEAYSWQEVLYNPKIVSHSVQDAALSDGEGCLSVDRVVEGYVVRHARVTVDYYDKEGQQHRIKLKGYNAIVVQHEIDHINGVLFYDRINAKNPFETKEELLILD

[9] = target: T1, PDF enzyme (Streptococcus pneumoniae serotype 4, UniProt Q9F2F0); assay: PDF/FDH coupled enzyme assay, Streptococcus Pneumoniae; type: biochemical; conditions: substrate fMAS, absorption at 340 nm
T1 sequence (Q9F2F0 1-203): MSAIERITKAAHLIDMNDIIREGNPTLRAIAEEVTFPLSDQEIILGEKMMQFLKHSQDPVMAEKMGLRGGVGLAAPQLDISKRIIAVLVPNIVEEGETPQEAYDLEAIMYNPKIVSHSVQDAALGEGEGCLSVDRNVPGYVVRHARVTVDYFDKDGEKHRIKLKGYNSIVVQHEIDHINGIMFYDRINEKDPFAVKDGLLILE

[10] = microdilution, Mueller-Hinton Broth, 37° C., 24 hours

| SMILES | MIC ([1]; 24 h) [µg/mL] | MIC ([2]; 24 h) [µg/mL] | LD50 at 14 days [3] [mg/kg] | MIC ([4]; 24 h) [µg/mL] | MIC ([5]; 24 h) [µg/mL] | MIC ([6]; 24 h) [µg/mL] | IC50 [7] [nM] | MIC [1, 10] [µg/mL] | IC50 [8] [nM] | MIC [2, 10] [µg/mL] | IC50 [9] [nM] | MIC [4, 10] [µg/mL] | MIC [5, 10] [µg/mL] | MIC [6, 10] [µg/mL] |
| --- | --- | --- | --- | --- | --- | --- | --- | --- | --- | --- | --- | --- | --- | --- |
| CC(C)(C)[C@H](NC(=O)[C@H](CC1CCCC1)CN(O)C=O)C(=O)N1CCC(Nc2ccc(F)cc2)CC1 [Example 17, (R)-2-Cyclopentylmethyl-N-{(S)-1-[4-(4-fluoro-phenylamino)-piperidine-1-carbonyl]-2,2-dimethyl-propyl}-3-(formyl-hydroxy-amino)-propionamide] | 0.8 (≈ 1.59 µM) | 3.1 (≈ 6.14 µM) | > 2000 | 0.2 (≈ 0.396 µM) | 0.2 (≈ 0.396 µM) | 0.4 (≈ 0.793 µM) | – | – | – | – | – | – | – | – |
| CN(c1ccccc1)C1CCN(C(=O)[C@@H](NC(=O)[C@H](CC2CCCC2)CN(O)C=O)C(C)(C)C)CC1 [Example 22, (R)-2-Cyclopentylmethyl-N-{(S)-2,2-dimethyl-1-[4-(methyl-phenyl-amino)-piperidine-1-carbonyl]-propyl}-3-(formyl-hydroxy-amino)-propionamide] | – | – | > 2000 | – | – | – | 113 | 0.2 (≈ 0.399 µM) | 42 | 3.1 (≈ 6.19 µM) | 25 | 0.05 (≈ 0.0999 µM) | 0.05 (≈ 0.0999 µM) | 0.2 (≈ 0.399 µM) |
